Measurements as given in ChEMBL document CHEMBL1201862, “PubChem BioAssay data set” (2004).
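A five-concentration, 48-hour dose response in 96-well plates underlies each endpoint, interpolated linearly between surrounding concentrations. Abbreviation: GI50, concentration required for 50% inhibition of growth.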 Active and inactive are the calls of the source. No stated cut-off is given here; in the data, active = GI50 up to about 1.1 µM and inactive = higher.

Assays:
Test in all cases: growth of human tumour cells (NCI), 48 h
[1] = test system: PC-3
[2] = test system: MDA-MB-435
[3] = test system: UO-31
[4] = test system: NCI-H226
[5] = test system: SK-MEL-28
[6] = test system: NCI-H460
[7] = test system: HL-60
[8] = test system: MDA-N
[9] = test system: OVCAR-3
[10] = test system: KM12
[11] = test system: NCI/ADR-RES
[12] = test system: CAKI-1
[13] = test system: SF-539
[14] = test system: HOP-62
[15] = test system: COLO 205
[16] = test system: Hs-578T
[17] = test system: SR
[18] = test system: RXF 393
[19] = test system: HCC 2998
[20] = test system: A498

Measured: GI50

Cc1ccc2nc(-c3ccc(N4C(=O)C(Cl)C4c4ccc(Cl)cc4)cc3)sc2c1 (configuration not stated)
inactive: [1] 10.5 µM | [2] 17.4 µM | [3] 21.4 µM | [4] 13.8 µM | [5] 8.75 µM | [6] 21.9 µM | [7] 29.9 µM | [8] 17.9 µM | [9] 16.3 µM | [10] 16.8 µM | [11] 18.5 µM | [12] 15.5 µM | [13] 17.5 µM | [14] 20.6 µM | [15] 14.6 µM | [16] 23.3 µM | [17] 24.2 µM

Cc1cccc(Nc2nn3c(=O)c4c5c(sc4nc3s2)CCCC5)c1
inactive: [1] 38.7 µM | [2] 7.41 µM | [3] > 100 µM | [4] > 100 µM | [5] > 100 µM | [6] 6.24 µM | [7] 23.4 µM | [8] 15 µM | [18] 20.4 µM | [9] 25.9 µM | [10] 16.1 µM | [11] 11.1 µM | [12] 9.93 µM | [13] > 100 µM | [14] 28.4 µM | [15] 3.69 µM | [16] 6.04 µM | [17] 25.4 µM

O=C1NC(=S)NC(=O)C1=C/C=C/c1ccc([N+](=O)[O-])cc1
inactive: [1] 16.9 µM | [2] 10.4 µM | [3] 18.3 µM | [4] 19.1 µM | [5] 3.03 µM | [6] 27 µM | [7] 3.71 µM | [8] 8.71 µM | [18] 13.1 µM | [9] 14.3 µM | [10] 38 µM | [11] 13.1 µM | [19] 18.4 µM | [12] 15.2 µM | [13] 13.8 µM | [14] 18.7 µM | [15] 13.2 µM | [16] 10.7 µM

CCCCc1ccc(Nc2nc(Cl)c3ncn(C4CC(Oc5ccc(C)cc5)C(COc5ccc(C)cc5)O4)c3n2)cc1 (configuration not stated)
inactive: [2] > 100 µM | [3] > 100 µM | [4] > 100 µM | [7] 89.9 µM | [8] > 100 µM | [18] > 100 µM | [9] > 100 µM | [10] > 100 µM | [11] > 100 µM | [19] 44.9 µM | [12] 6.52 µM | [13] > 100 µM | [14] 75.2 µM | [20] > 100 µM | [15] > 100 µM | [16] > 100 µM | [17] > 100 µM

c1ccc(C2CC(N3CCOCC3)=Nc3ccccc3N2)cc1 (configuration not stated)
inactive: [1] > 100 µM | [2] 54.3 µM | [3] > 100 µM | [4] > 100 µM | [5] > 100 µM | [6] > 100 µM | [7] > 100 µM | [8] > 100 µM | [18] 78.5 µM | [9] > 100 µM | [10] > 100 µM | [11] > 100 µM | [12] > 100 µM | [13] > 100 µM | [14] > 100 µM | [20] > 100 µM | [15] > 100 µM | [16] > 100 µM

O=C(O)Cc1cccc2c1OC(c1ccccc1)C(C(=O)c1ccccc1)C2=O (configuration not stated)
inactive: [1] > 100 µM | [2] 35 µM | [3] 88.9 µM | [4] > 100 µM | [5] 65.3 µM | [6] 30.5 µM | [7] 26.5 µM | [8] 33.8 µM | [18] > 100 µM | [9] > 100 µM | [10] 25.6 µM | [11] > 100 µM | [19] 20.4 µM | [12] 42.1 µM | [13] 51.5 µM | [14] > 100 µM | [15] 67.6 µM | [16] > 100 µM | [17] 39.3 µM

Cc1ccccc1NC(=O)C(=O)CC(=O)c1sc(Nc2ccccc2[N+](=O)[O-])nc1C
inactive: [1] 28.1 µM | [2] 29 µM | [3] 10.4 µM | [4] 34.8 µM | [5] 25.7 µM | [6] 27.4 µM | [7] 60.4 µM | [8] 35.7 µM | [18] 26.4 µM | [9] 32 µM | [10] 47.5 µM | [11] 41.2 µM | [19] 24.4 µM | [12] 28.4 µM | [13] 29.9 µM | [14] 25.2 µM | [15] 86.1 µM | [16] 40.8 µM

Oc1ccc(/C=N/CC2CCCN3CCCCC23)cc1 (configuration not stated)
inactive: [1] 26.4 µM | [2] 14.1 µM | [3] 23.1 µM | [4] 21.6 µM | [5] 22.5 µM | [6] 25.1 µM | [8] 18.4 µM | [18] 20 µM | [9] 29.4 µM | [10] 16.4 µM | [11] 46.8 µM | [19] 20 µM | [12] 17.8 µM | [13] 62.1 µM | [14] 26.7 µM | [20] 26.5 µM | [15] 27.6 µM | [16] 33.1 µM

N/C(CSCCSC/C(N)=N/O)=N\O
inactive: [1] > 100 µM | [2] > 100 µM | [3] > 100 µM | [4] > 100 µM | [5] > 100 µM | [6] > 100 µM | [7] > 100 µM | [8] > 100 µM | [18] > 100 µM | [9] > 100 µM | [10] > 100 µM | [11] > 100 µM | [19] > 100 µM | [12] > 100 µM | [13] > 100 µM | [14] > 100 µM | [15] > 100 µM | [16] > 100 µM | [17] > 100 µM

O=C(Cn1c2ccc(Br)cc2c2nc3ccccc3nc21)Nc1ccccc1
inactive: [1] 18 µM | [2] 51.4 µM | [3] 42.2 µM | [4] 32.6 µM | [5] 36.1 µM | [6] 31.8 µM | [8] 37.7 µM | [18] 20.2 µM | [9] > 100 µM | [10] 56.8 µM | [11] 20 µM | [19] 34.8 µM | [12] 26.8 µM | [14] 27.9 µM | [20] 34 µM | [15] 50.6 µM | [16] 26.7 µM

O=C1SC(c2ccc(Cl)cc2)(c2ccc(Cl)cc2)c2ccccc21
inactive: [1] 40.4 µM | [2] 61.5 µM | [3] 76.6 µM | [4] 39.5 µM | [5] > 100 µM | [6] 63.1 µM | [7] 28.2 µM | [8] 62.4 µM | [18] 39.4 µM | [9] 79.3 µM | [10] 66.7 µM | [11] > 100 µM | [19] 38.3 µM | [12] > 100 µM | [13] > 100 µM | [14] > 100 µM | [20] > 100 µM | [15] 83 µM | [16] 81.8 µM

CC(=O)OCCOCn1c2c(c(=O)[nH]c1=O)CCC2
inactive: [1] > 100 µM | [2] > 100 µM | [3] > 100 µM | [4] > 100 µM | [5] > 100 µM | [7] > 100 µM | [8] > 100 µM | [18] > 100 µM | [9] > 100 µM | [10] > 100 µM | [19] > 100 µM | [12] > 100 µM | [13] > 100 µM | [14] > 100 µM | [15] > 100 µM | [16] > 100 µM | [17] > 100 µM

Cc1cc2nnn(C3CCCCO3)c2cc1C (configuration not stated)
inactive: [1] > 100 µM | [2] > 100 µM | [3] 98.2 µM | [4] > 100 µM | [6] > 100 µM | [8] > 100 µM | [18] > 100 µM | [9] > 100 µM | [10] > 100 µM | [11] > 100 µM | [19] > 100 µM | [12] > 100 µM | [13] > 100 µM | [14] > 100 µM | [15] > 100 µM | [16] > 100 µM | [17] > 100 µM

CSc1nc2c(N)ncnc2n1C
inactive: [1] > 100 µM | [2] > 100 µM | [3] > 100 µM | [4] > 100 µM | [5] > 100 µM | [6] > 100 µM | [8] > 100 µM | [18] > 100 µM | [9] > 100 µM | [10] > 100 µM | [11] > 100 µM | [19] > 100 µM | [12] > 100 µM | [13] > 100 µM | [14] > 100 µM | [20] > 100 µM | [15] > 100 µM | [16] > 100 µM

Brc1ccc2c3c1[C@H]1O[C@H]1c1cccc(c1-3)[C@@H]1O[C@H]21
inactive: [1] 16.8 µM | [2] 15 µM | [3] 17.3 µM | [4] 24.5 µM | [5] 15.9 µM | [8] 16.9 µM | [10] 15.2 µM | [11] 22.2 µM | [12] 17.8 µM | [14] 14.8 µM | [20] 21.2 µM | [15] 19.3 µM | [16] 23.1 µM | [17] 20.2 µM

COc1ccc2c3c1OC1C4(CCC5C(C2)N(CC2CC2)CCC351)OCCO4 (configuration not stated)
inactive: [1] > 100 µM | [2] > 100 µM | [3] > 100 µM | [4] > 100 µM | [5] > 100 µM | [6] > 100 µM | [7] > 100 µM | [8] > 100 µM | [18] > 100 µM | [9] > 100 µM | [10] > 100 µM | [11] > 100 µM | [19] > 100 µM | [12] > 100 µM | [14] > 100 µM | [15] > 100 µM | [16] > 100 µM | [17] > 100 µM
